In patent US6350744B1, “Compounds having cytokine inhibitory activity” (Merck & Co., Inc., priority 1998, dated 2002):

| melting point [°C] | SMILES |
| --- | --- |
| 188 to 189 | CN1CCC(c2cc(-c3ccncc3)c(-c3cccc(C(F)(F)F)c3)nn2)CC1 [Example 11, 3-(3-trifluoromethylphenyl)-4(pyridine-4-yl)-6-(N-methylpiperidin-4-yl)pyridazine] |
| 148 to 150 | FC(F)(F)c1cccc(-c2cc(C3CCNCC3)nnc2-c2ccncc2)c1 [Example 28, 3-(pyridine-4-yl)-4-(3-trifluoromethylphenyl)-6-(piperidin-4-yl)pyridazine] |
